Experimental data from patent publication US5872104A, “Combinations and methods for reducing antimicrobial resistance” (Oridigm Corporation, priority 1994, dated 1999).
In brackets after ≈: the same amount, converted by molar mass. Entries after “also recorded” stand apart in the source; their conditions may differ. Read-outs that look alike come from different tables or passages of the source.

Columns and labels:
[1] = tested on: L1210 cells; test: Growth inhibition in L1210 cell culture; type: cell-based
[2] = tested on: SAM synthetase; conditions: cited from earlier work
[3] = tested on: SAM pools in L1210 cells; conditions: cited from earlier work
[4] = tested on: L1210 cells; conditions: absence of polyamine depletion; cited from earlier work
[5] = tested on: anaerobic bacteria; conditions: cited from earlier work
[6] = tested on: Staphylococcus aureus, methicillin susceptible; conditions: in µg/mL; cited from earlier work
[7] = tested on: Staphylococcus aureus, methicillin resistant; conditions: cited from earlier work
[8] = tested on: Streptococcus pyogenes (group A), erythromycin susceptible; conditions: cited from earlier work
[9] = tested on: Streptococcus pneumoniae; conditions: in µg/mL; cited from earlier work
[10] = tested on: Streptococcus agalactactiae (group B); conditions: in µg/mL; cited from earlier work
[11] = tested on: Viridans streptococci; conditions: cited from earlier work
[12] = tested on: Listeria monocytogenes; conditions: in µg/mL; cited from earlier work
[13] = tested on: Haemophilus influenzae; conditions: in µg/mL; cited from earlier work
[14] = tested on: Moraxella catarrhalis; conditions: in µg/mL; cited from earlier work
[15] = tested on: Neisseria gonorrhoeae; conditions: in µg/mL; cited from earlier work
[16] = tested on: Legionella pneumophila; conditions: in µg/mL; cited from earlier work
[17] = tested on: Campylobacter species; conditions: in µg/mL; cited from earlier work
[18] = tested on: Bacteroides fragilis; conditions: anaerobes; in µg/mL; cited from earlier work
[19] = tested on: Clostridium perfringens; conditions: anaerobes; in µg/mL; cited from earlier work
[20] = tested on: Chlamydia pneumoniae (formerly TWAR); conditions: in µg/mL; cited from earlier work
[21] = tested on: Chlamydia trachomatis; conditions: in µg/mL; cited from earlier work
[22] = tested on: Mycoplasma pneumoniae; conditions: in µg/mL; cited from earlier work
[23] = versus erythromycin; cited from earlier work
[24] = tested on: H. influenzae; conditions: versus erythromycin; cited from earlier work
[25] = tested on: rat leukemia (BNML); conditions: nitrous oxide plus cycloleucine; cited from earlier work
[26] = tested on: methionine synthetase; conditions: cited from earlier work
[27] = tested on: Salmonella typhimurium; conditions: elevated pressures; cited from earlier work
[28] = tested on: Streptococcus faecalis; conditions: elevated pressures; cited from earlier work
[29] = tested on: E. coli; conditions: elevated pressures; cited from earlier work
[30] = tested on: S. aureus; conditions: elevated pressures; cited from earlier work
[31] = prolonged exposure to clinical concentrations; cited from earlier work
[32] = tested on: RNA methyltransferase from Streptomyces antibioticus; conditions: 50 μM; cited from earlier work
[33] = tested on: RNA methyltransferases from Streptomyces (S. antibioticus, S. incarnatus, S. griseolus); conditions: cited from earlier work
[34] = tested on: DNA methylases from S. antibioticus; conditions: non-sinefungin producer; cited from earlier work
[35] = tested on: tRNA methylation; conditions: cited from earlier work
[36] = tested on: S. antibioticus; conditions: cited from earlier work
[37] = tested on: rRNA of S. cerevisiae; conditions: cited from earlier work
[38] = tested on: vaccinia virion mRNA(guanine-7)methyltransferase; conditions: cited from earlier work
[39] = tested on: vaccinia virion mRNA(nucleoside-2'-)methyltransferase; conditions: cited from earlier work
[40] = tested on: Newcastle disease virion mRNA(guanine-7-)methyltransferase; conditions: cited from earlier work
[41] = tested on: virion plaque formation; conditions: 10 μM; cited from earlier work
[42] = tested on: cellular toxicity; conditions: cited from earlier work
[43] = tested on: Cryptosporidium parvum; conditions: in vivo; cited from earlier work
[44] = tested on: cutaneous Leishmaniasis; conditions: mouse, in vivo; cited from earlier work
[45] = tested on: rat SAM synthetase M-1 isozyme; conditions: cited from earlier work
[46] = tested on: rat SAM synthetase M-2 isozyme; conditions: cited from earlier work
[47] = tested on: SAH hydrolase; conditions: cited from earlier work
[48] = iv., mice; cited from earlier work
[49] = tested on: tRNA methylases isolated from E. coli; conditions: cited from earlier work
[50] = tested on: rRNA processing; conditions: cited from earlier work
[51] = tested on: mature rRNA in Novikoff hepatoma cells; conditions: cited from earlier work
[52] = tested on: Brucella canis; conditions: 2×10 mg/kg; cited from earlier work
[53] = tested on: SAM-synthetase; conditions: in vivo; cited from earlier work
[54] = tested on: glutathione; conditions: ip.; 4.5 mmol/kg buthionine sulfoximine and […] diethyl maleate; cited from earlier work
[55] = tested on: 28S and 18S rRNA formation; conditions: cited from earlier work
[56] = tested on: S. aureus 27660 (erythromycin resistant); type: cell-based
[57] = tested on: S. aureus 6538 (erythromycin susceptible); test: Erythromycin disk susceptibility with inhibitor pre-mixed in agar; type: cell-based; conditions: inhibitor pre-mixed with BHIA or TSA, with erythromycin (FIG. 2)
[58] = tested on: internal m^6 A of late SV40 mRNA; conditions: 0.5 mg/ml; cited from earlier work
[59] = tested on: tumor-derived methionine adenosyltransferases; conditions: cited from earlier work
[60] = tested on: lysosomal ADA; conditions: 0.02 mM; cited from earlier work
[61] = tested on: adenosine deaminase; conditions: cited from earlier work
[62] = tested on: neoplastic cells; conditions: cited from earlier work
[63] = 1 mg/kg/day for 5 days; cited from earlier work

What does the source list for `CO/C=C\[C@H](N)C(=O)O` (stereo in doubt) [L-cis-AMB, L-2-amino-4-methoxy-cis-but-3-enoic acid]?
IC50, fold lower than that of cycloleucine [1]: about 10 fold; SAM synthetase inhibition [2]: most potent methionine-analogue inhibitor of SAM synthetase at that time; depletion of SAM ([3]; 1 mM, cultured L1210 cells): rapid and near-total depletion of SAM by 4 hours; SAM pools in intact cells ([3]; intact cells): rapidly depleting SAM pools in intact cells without affecting precursor incorporation into macromolecules; IC50 [4]: 0.4 mM

With `CCC[C@@H]1C[C@@H](C(=O)N[C@@H]([C@H]2O[C@H](SC)[C@H](O)[C@@H](O)[C@H]2O)[C@H](C)Cl)N(C)C1` [clindamycin] as the compound, how does the “activity against anaerobic bacteria” value [5] read?
The value was “potent against anaerobic bacteria”.

For `CC[C@H]1OC(=O)[C@H](C)[C@@H](O[C@H]2C[C@@](C)(OC)[C@@H](O)[C@H](C)O2)[C@H](C)[C@@H](O[C@@H]2O[C@H](C)C[C@H](N(C)C)[C@H]2O)[C@](C)(OC)C[C@@H](C)C(=O)[C@H](C)[C@@H](O)[C@]1(C)O` [Clarithromycin], which MIC90 [6] is on record?
Its MIC90 is 0.12-0.24.

And the MIC90 [7]?
Its MIC90 is greater than 128 µg/mL.

And the MIC90 [8]?
The MIC90 was 0.015 µg/mL (≈ 0.0201 µM).

What about the MIC90 [9] of the same compound?
The MIC90 was 0.015.

What about the MIC90 [10] of the same compound?
The MIC90 was 0.03-0.25.

And the MIC90 [11]?
The MIC90 was 0.03 µg/mL (≈ 0.0401 µM).

And the MIC90 [12]?
The MIC90 was 0.12-2.0.

And the MIC90 [13]?
The MIC90 was 2.0-16.0.

And the MIC90 [14]?
Its MIC90 is 0.25-1.0.

And the MIC90 [15]?
Its MIC90 is 0.25-2.0.

What about the MIC90 [16] of the same compound?
Its MIC90 is 0.25.

What about the MIC90 [17] of the same compound?
The MIC90 was 1.0-8.0.

What about the MIC90 [18] of the same compound?
Its MIC90 is 2.0-8.0.

What about the MIC90 [19] of the same compound?
Its MIC90 is 0.5-2.0.

What about the MIC90 [20] of the same compound?
Its MIC90 is 0.007.

And the MIC90 [21]?
The MIC90 was 0.06-0.125.

And the MIC90 [22]?
Its MIC90 is 0.008-0.03.

And the stability [23]?
Its stability is “better stability properties”.

What about the H. influenzae activity [24] of the same compound?
Its H. influenzae activity is “enhanced H. influenzae activity”.

What does the source list for `[N-]=[N+]=O` [nitrous oxide]?
growth inhibiting effects [25]: synergistic growth inhibiting effects; methionine synthetase [26]: inhibiting methionine synthetase; inhibition of bacteria [27]: inhibited; inhibition of bacteria [28]: inhibited; inhibition of bacteria [29]: inhibited; inhibition of bacteria [30]: inhibited; adverse effects of prolonged exposure [31]: inhibits cellular proliferation and can lead to megaloblastic anemia, leukopenia, and thrombocytopenia

Which results are given for `Nc1ncnc2c1ncn2[C@@H]1O[C@H](C[C@@H](N)CC[C@H](N)C(=O)O)[C@@H](O)[C@H]1O` [sinefungin]?
inhibition [32]: 96%; inhibition of RNA methyltransferases [33]: strongly inhibit RNA methyltransferases; also recorded: inhibited RNA methyltransferase; inhibition of DNA methylases [34]: noticeably inhibited; inhibition of methylation by base [35]: inhibits the methylation of adenine or guanine to a greater extent than cytosine in tRNA; inhibition of methylation by base ([35]; listed as Sinefungin): very strongly inhibits the methylation of G in position 2 and 7, and that of A in position 1 and 6; sporulation [36]: inhibits sporulation; synthesis of DNA methyltransferases [36]: didn't inhibit the synthesis of DNA methyltransferases; rRNA methylation / stable 18S rRNA [37]: inhibits methylation of rRNA in S.cerevisiae and leads to a decrease in stable 18S rRNA; inhibition ([38]; 100 μM): 100%; inhibition [38]: potent inhibitors; inhibition [39]: potent inhibitors; inhibition [40]: potent inhibitors; inhibition of virion plaque formation [41]: significant inhibition of virion plaque formation; cellular toxicity ([42]; 10 μM): no cellular toxicity was detected; cellular toxicity ([42]; higher concentrations (above 10 μM)): significant cellular toxicity; usable dosage in rat model [43]: 10 mg/kg/day; optimum dosage [44]: 4 mg/kg/day; optimum dosage: times lower than the LD50 [44]: 50 times

Which inhibition [45] does the source give for `Nc1ncnc2c1ncn2[C@@H]1O[C@H]([C@H](CSCC[C@H](N)C(=O)O)OP(=O)(O)OP(=O)(O)NP(=O)(O)O)[C@@H](O)[C@H]1O` [5'(R)-(C)-[(L-homocysteine-S-yl)methyl]adenosine 5'-(β,γ-imidotriphosphate)] here?
Its inhibition is “most effective inhibitor”.

And the inhibition [46]?
Its inhibition is “most effective inhibitor”.

With `Nc1ncnc2c1ccn2[C@@H]1O[C@H](CO)[C@@H](O)[C@H]1O` [Tubercidin, 7-deazaadenosine] as the compound, how does the SAH hydrolase inhibition [47] read?
The SAH hydrolase inhibition was “inhibits SAHH”.

And the LD50 [48]?
The LD50 was 45 mg/kg.

What about the “inhibition of E. coli tRNA methylases” value [49] of the same compound?
The value was “inhibitory to tRNA methylases isolated from E. coli”.

And the rRNA processing [50]?
Its rRNA processing is “inhibits rRNA processing in addition to methylation of tRNA and protein and nucleic acid synthesis”.

And the “formation of mature rRNA” value [51]?
The value was “inhibit the formation of mature 28S and 18”.

For `[H]/N=C(/N)N[C@H]1[C@H](O)[C@@H](O)[C@H](O[C@@H]2O[C@@H](C)[C@](O)(C=O)[C@H]2O[C@@H]2O[C@@H](CO)[C@H](O)[C@@H](O)[C@@H]2NC)[C@@H](N/C(N)=N\[H])[C@@H]1O` [streptomycin], which surviving bacteria [52] is on record?
Its surviving bacteria is “only a minor reduction in the number of surviving bacteria”.

With `CCCCS(=N)(=O)CCC(N)C(=O)O` (stereo not shown) [buthionine sulfoximine, CH3 (CH2)2 S (O)(=NH)CH2 CH2 CH(NH2)COOH] as the compound, how does the “SAM-synthetase activity, % of untreated animals” value [53] read?
The value was “about 40%”.

And the depletion of glutathione [54]?
Its depletion of glutathione is “depleted liver and aortic glutathione”.

Which “formation of 28S and 18S RNA” value [55] does the source give for `Nc1ncn([C@@H]2O[C@H](CO)[C@@H](O)[C@H]2O)c(=O)n1` [5-Azacitidine] here?
Its value is “severely inhibited”.

With `NC1(C(=O)O)CCCC1` [cycloleucine, 1-aminocyclopentane-1-carboxylic acid] as the compound, how does the “improved killing, increase over control” value ([56]; 0.1M in Brain Heart Infusion Agar (FIG. 3)) read?
The value was 240%.

And the “increase in the size of the clear zone” value ([56]; inhibitor pre-mixed with BHIA or TSA, with erythromycin (FIG. 3))?
The value was “increase in the size of the clear zone”.

And the “increase in the size of the clear zone” value [57]?
The value was “increase in the size of the clear zone”.

And the “decrease in internal m^6 A” value [58]?
The value was greater than 30%.

And the SAM synthetase inhibition [2]?
Its SAM synthetase inhibition is “inhibitor of SAM synthetase”.

And the inhibition [59]?
The inhibition was “effective inhibitors”.

And the growth inhibiting effects [25]?
The growth inhibiting effects was “synergistic growth inhibiting effects”.

What about the IC50 [4] of the same compound?
The IC50 was 5 mM.

With `OC[C@H]1O[C@@H](n2cnc3c2NC=NC[C@H]3O)C[C@@H]1O` [2'-deoxyconformycin (pentostatin)] as the compound, how does the “inhibition of lysosomal ADA” value [60] read?
Its value is greater than 97%.

What about the ADA inhibition [61] of the same compound?
The ADA inhibition was “potent inhibitors of ADA”.

What about the “safe and effective low weekly dose (protracted ADA inhibition in neoplastic cells)” value [62] of the same compound?
The value was 0.13 mg/kg.

What about the tolerability in patients [63] of the same compound?
Its tolerability in patients is “minimal distress”.
